Measured values from patent publication US20240182453A1, “NOVEL SUBSTITUTED PYRAZINE-CARBOXAMIDE DERIVATIVES” (Boehringer Ingelheim International GmbH, priority 2022, published 2024).

Each compound was assayed against human metabotropic Glutamate 4 receptor (mGluR4) (Homo sapiens (Human), UniProt Q14833) (assay: Assay A: in vitro testing of mGluR4 potency (glutamate-induced cAMP lowering, HTRF cAMP)). Conditions: HEK293 cells overexpressing human mGluR4; 10 uM L-glutamic acid, 1 uM forskolin; compounds of the present invention.
Sequence of human metabotropic Glutamate 4 receptor (mGluR4) (Q14833 33-912): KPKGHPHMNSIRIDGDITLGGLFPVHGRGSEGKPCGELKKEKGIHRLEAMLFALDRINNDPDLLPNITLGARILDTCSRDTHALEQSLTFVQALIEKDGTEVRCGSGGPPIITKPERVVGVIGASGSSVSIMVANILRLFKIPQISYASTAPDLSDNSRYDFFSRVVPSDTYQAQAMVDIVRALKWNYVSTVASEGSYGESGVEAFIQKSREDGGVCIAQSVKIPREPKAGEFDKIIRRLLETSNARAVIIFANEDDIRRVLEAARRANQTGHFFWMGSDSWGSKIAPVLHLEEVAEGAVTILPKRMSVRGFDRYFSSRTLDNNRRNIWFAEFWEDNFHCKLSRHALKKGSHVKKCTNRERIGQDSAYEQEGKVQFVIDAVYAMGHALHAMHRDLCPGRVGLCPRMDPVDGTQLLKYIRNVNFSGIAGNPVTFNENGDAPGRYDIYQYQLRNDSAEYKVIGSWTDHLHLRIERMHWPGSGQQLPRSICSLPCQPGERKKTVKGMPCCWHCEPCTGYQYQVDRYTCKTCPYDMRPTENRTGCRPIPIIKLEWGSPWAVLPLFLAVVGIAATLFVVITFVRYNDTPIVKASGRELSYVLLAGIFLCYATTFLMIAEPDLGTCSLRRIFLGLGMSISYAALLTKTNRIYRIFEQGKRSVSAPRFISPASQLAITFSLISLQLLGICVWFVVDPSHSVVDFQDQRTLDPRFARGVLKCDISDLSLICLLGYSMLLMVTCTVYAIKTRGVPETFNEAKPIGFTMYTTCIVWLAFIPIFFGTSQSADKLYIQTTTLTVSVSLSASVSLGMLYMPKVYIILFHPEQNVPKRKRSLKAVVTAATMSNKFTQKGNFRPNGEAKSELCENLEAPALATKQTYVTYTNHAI
Assay type: cell-based
Procedure, shortened: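 HEK293 cells overexpressing human mGluR4 treated 30 min at room temperature with compound plus 10 uM L-glutamate, 1 uM forskolin, 0.5 mM IBMX, 0.1% BSA, 1% DMSO. cAMP read by HTRF (665/615 nm ratio), normalized to glutamate (100%) and no-glutamate (0%) controls as percent of control.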
For `COCCn1c([C@@H](NC(=O)c2cnc(C)cn2)[C@H]2CCCO2)nc2cc(OC(F)(F)F)ccc21` [Example 89, N-[(R)-[1-(2-methoxyethyl)-5-(trifluoromethoxy)-1H-1,3-benzodiazol-2-yl][(2R)-oxolan-2-yl]methyl]-5-methylpyrazine-2-carboxamide], the IC50 was 10 nM. In the case of `COCCn1c(C(NC(=O)c2cnc(C)cn2)C2CCCO2)nc2cc(OC(F)(F)F)ccc21` (centres unmarked) [Example 89-2], the IC50 is reported as 4 nM. In the case of `COCCn1c([C@@H](NC(=O)c2cnc(C(F)F)cn2)[C@@H]2CCOC2)nc2cc(C(F)(F)F)ccc21` [Example 90, 5-(difluoromethyl)-N-[(S)-[1-(2-methoxyethyl)-5-(trifluoromethyl)-1H-1,3-benzodiazol-2-yl][(3S)-oxolan-3-yl]methyl]pyrazine-2-carboxamide], the IC50 is reported as 6 nM. For `COCCn1c(C(NC(=O)c2cnc(C(F)F)cn2)C2CCOC2)nc2cc(C(F)(F)F)ccc21` (centres unmarked) [Example 90-3], the IC50 was 13 nM. `COCCn1c([C@@H](NC(=O)c2cnc(C)cn2)[C@@H]2CCOC2)nc2cc(Cl)ccc21` [Example 91, N-[(S)-[5-chloro-1-(2-methoxyethyl)-1H-1,3-benzodiazol-2-yl][(3S)-oxolan-3-yl]methyl]-5-methylpyrazine-2-carboxamide] was tested, and the IC50 was 11 nM. Compound `Cc1cnc(C(=O)N[C@@H](CC2CC2)c2nc3cc(Cl)ccc3n2C2CC2)cn1` [Example 92, N-[(1S)-1-(5-chloro-1-cyclopropyl-1H-1,3-benzodiazol-2-yl)-2-cyclopropylethyl]-5-methylpyrazine-2-carboxamide] has an IC50 of 18 nM. For `Cc1cnc(C(=O)N[C@H](c2nc3cc(C(F)(F)F)ccc3n2C)C2(O)CCC2)cn1` [Example 93, N-[(R)-(1-hydroxycyclobutyl)[1-methyl-5-(trifluoromethyl)-1H-1,3-benzodiazol-2-yl]methyl]-5-methylpyrazine-2-carboxamide], the IC50 was 9 nM. `Cn1c([C@H](CC2CC2)NC(=O)c2cnc(C(F)F)cn2)nc2cc(F)c(F)cc21` [Example 94, N-[(1S)-2-cyclopropyl-1-(5,6-difluoro-1-methyl-1H-1,3-benzodiazol-2-yl)ethyl]-5-(difluoromethyl)pyrazine-2-carboxamide] showed an IC50 of 16 nM. Compound `Cc1cnc(C(=O)N[C@@H](CC2CC2)c2nc3cc(F)ccc3n2CCOC(F)F)cn1` [Example 95, N-[(1S)-2-cyclopropyl-1-{1-[2-(difluoromethoxy)ethyl]-5-fluoro-1H-1,3-benzodiazol-2-yl}ethyl]-5-methylpyrazine-2-carboxamide] has an IC50 of 13 nM. In the case of `Cc1cnc(C(=O)N[C@H](c2nc3cc(C)c(F)cc3n2C)C2CC2)cn1` [Example 96, N-[(S)-cyclopropyl (6-fluoro-1,5-dimethyl-1H-1,3-benzodiazol-2-yl)methyl]-5-methylpyrazine-2-carboxamide], the IC50 is reported as 15 nM. With `CCn1c([C@@H](NC(=O)c2cnc(C)cn2)[C@@H]2CCOC2)nc2cc(OC(F)(F)F)ccc21` [Example 97, N-[(S)-[1-ethyl-5-(trifluoromethyoxy)-1H-1,3-benzodiazol-2-yl][(3S)-oxolan-3-yl]methyl]-5-methylpyrazine-2-carboxamide] the IC50 was 20 nM. `CCn1c([C@@H](NC(=O)c2cnc(C)cn2)C(C)(C)O)nc2cc(OC(F)(F)F)ccc21` [Example 98, N-[(1R)-1-[1-ethyl-5-(trifluoromethoxy)-1H-1,3-benzodiazol-2-yl]-2-hydroxy-2-methylpropyl]-5-methylpyrazine-2-carboxamide] was tested, and the IC50 was 10 nM. `O=C(N[C@@H](CC1CC1)c1nc2cc(F)ccc2n1CCOC(F)F)c1cnc(C(F)F)cn1` [Example 99, N-[(1S)-2-cyclopropyl-1-{1-[2-(difluoromethoxy)ethyl]-5-fluoro-1H-1,3-benzodiazol-2-yl}ethyl]-5-(difluoromethyl)pyrazine-2-carboxamide] showed an IC50 of 9 nM. `Cc1cnc(C(=O)N[C@H](c2nc3cc(Cl)c(F)cc3n2C)C2CC2)cn1` [Example 100, N-[(S)-(5-chloro-6-fluoro-1-methyl-1H-1,3-benzodiazol-2-yl)(cyclopropyl)methyl]-5-methylpyrazine-2-carboxamide] gave an IC50 of 19 nM.
